The values that follow come from PMC7615343, “Fluorination Influences the Bioisostery of Myo-Inositol Pyrophosphate Analogs” (Chemistry (Weinheim an der Bergstrasse, Germany), 2023).

Assay [1] addresses T1, PPIP5K2^1-366 (human PPIP5K2 kinase domain) (Homo sapiens, UniProt O43314).
T1 construct: one comprised residues 1–366; made in house
T1 sequence (O43314 1-366): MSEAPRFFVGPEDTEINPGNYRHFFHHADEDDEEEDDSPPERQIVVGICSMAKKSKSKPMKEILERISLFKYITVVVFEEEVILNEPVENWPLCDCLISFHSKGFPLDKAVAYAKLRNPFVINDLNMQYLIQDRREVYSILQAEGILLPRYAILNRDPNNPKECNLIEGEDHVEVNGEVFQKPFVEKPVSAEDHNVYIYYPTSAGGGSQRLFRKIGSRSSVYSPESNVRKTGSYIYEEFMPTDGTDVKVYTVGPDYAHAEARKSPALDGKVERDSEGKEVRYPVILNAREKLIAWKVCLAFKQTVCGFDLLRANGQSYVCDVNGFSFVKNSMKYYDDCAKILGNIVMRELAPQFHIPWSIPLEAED
As to the kind of experiment: Isothermal titration calorimetry of ligand binding to PPIP5K2KD. The conditions noted are these: ITC, 25°C; for ΔH / ΔS: 7.5 μM PPIP5K2^1-366, 75 μM ligand, pH 7.2; for Kd: 7.5 μM PPIP5K2^1-366 in cell, 75 μM ligand in syringe, pH 7.2, 1mM AMP-PNP, 1mM MgCl2, read-out: Kd (apparent).
Description: We next used isothermal titration calorimetry (ITC) to analyze the interactions of PPIP5K2^KD with 5PP-IP5 and each of the four analogs studied herein (Figure 5A-E). […] At the same time, the enthalpic gain for binding was largest for 5PCF2Am-IP5 and 5PA-IP5. A possible explanation may be that these two ligands are less strongly hydrated, due to their lower overall charge. The enthalpic cost for dehydration of 5PCF2Am-IP5 and 5PA-IP5 is therefore lower, compared to the other molecules, resulting in a higher enthalpic gain overall. A less strongly hydrated ligand will also release fewer water molecules upon binding, consistent with the lower entropic gains.
Figure 5 Analysis of ligand binding to the PPIP5K2^KD by ITC. Test solutions contained 7.5 μM of PPIP5K2^1-366 in the sample cell and 75 μM ligand in the syringe. Other details are provided in the Methods Section. Representative thermograms (1 of 3 replicates) are shown for titration of either (A) 5PP-IP5; (B) 5PCPF2P-IP5; (C) 5PCP-IP5; (D) 5PCF2Am-IP5; (E) 5PA-IP5. (F) Corresponding thermodynamic data. TEXT PRINTED IN THE PICTURE: (F) 5PP-: Kd (nM): 123 ± 13; ΔH (kJ/mol): -26 ± 2; ΔS (kJ/mol/deg): 0.046 ± 0.008 | (F) 5PCF2-: Kd (nM): 246 ± 10; ΔH (kJ/mol): -16 ± 1; ΔS (kJ/mol/deg): 0.072 ± 0.005 | (F) 5PCP-: Kd (nM): 100 ± 10; ΔH (kJ/mol): -20 ± 2; ΔS (kJ/mol/deg): 0.067 ± 0.016 | (F) 5PCF2-Am-: Kd (nM): 90 ± 13; ΔH (kJ/mol): -38 ± 2; ΔS (kJ/mol/deg): 0.007 ± 0.004 | (F) 5PA-: Kd (nM): 90 ± 7; ΔH (kJ/mol): -36 ± 3; ΔS (kJ/mol/deg): 0.013 ± 0.008 […]
(§1) Calorimetry experiments were performed using a MicroCal PEAQ-ITC (Malvern Panalytical) with 7.5 μM recombinant PPIP5K21-366 in the sample cell and 75 μM of ligand in the syringe, each of which was maintained at 25°C in buffer containing 20 mM HEPES, pH 7.2, 150 mM KCl, 0.05 mM EDTA, 1mM AMP-PNP, 1mM MgCl2 as indicated. The sample cell (volume = 204 μL) and the syringe were cleaned before each run. Thermograms were constructed from 13 injections, each of which involved 3 μL of ligand delivered for 6 s, with an equilibration time of 150-300 s between each injection. The stirring speed was set to 750 rpm. Data were fitted to a single binding site model using the analysis software provided by the manufacturer. At least three runs were performed for each condition.
Protein expression and purification.
Throughout the main text, PPIP5K2KD is deployed as an abbreviation for the human PPIP5K2 kinase domain. However, two different constructs were utilized, as described in the figure legends and within the Methods section below: one comprised residues 1–366 (PPIP5K21-366) and the other comprised residues 41–366 (PPIP5K241-366). Both constructs were expressed and purified as described previously.[6] The human DIPP1 construct (residues 1-148) was expressed and purified as described in [7]. […]
The molecular graphics representations wer e prepared with the program PyMol (Schrödinger, LLC). Atomic coordinates an d structure factors have been deposited with the Protein Data Bank with accession codes 8G9C, 8G9D, 8G9E.
PPIP5K2KD reverse kinase assay […]
Isothermal titration calorimetry
as §1, with “PPIP5K21–366” for “PPIP5K21-366”, “2 04 µL)” for “204 μL)”, “µL” for “μL”, “150 -300” for “150-300”, “cond ition. […]” for “condition.”

Assay [2] addresses T1, PPIP5K2^1-366 (human PPIP5K2 kinase domain). The conditions noted are these: published value; read-out: IC50, inhibition of the reverse kinase activity of PPIP5K2KD; cited from earlier work.

With `O=C(CP(=O)(O)O)O[C@@H]1[C@@H](OP(=O)(O)O)[C@H](OP(=O)(O)O)[C@H](OP(=O)(O)O)[C@H](OP(=O)(O)O)[C@H]1OP(=O)(O)O` [5PA-IP5], in assay [1], the ΔH was -8.6 ± 0.72 kcal/mol, the ΔS is 0.013 ± 0.008 kJ/mol/deg and the Kd worked out at 90 ± 7 nM. Besides, the IC50 in assay [2] is 129 nM.
`O=C(N[C@@H]1[C@@H](OP(=O)(O)O)[C@H](OP(=O)(O)O)[C@H](OP(=O)(O)O)[C@H](OP(=O)(O)O)[C@H]1OP(=O)(O)O)C(F)(F)P(=O)(O)O` [5PCF2Am-IP5]: in assay [1], the ΔH is -9.08 ± 0.48 kcal/mol, the ΔS amounted to 0.007 ± 0.004 kJ/mol/deg and the Kd was determined as 90 ± 13 nM.
Turning to `O=P(O)(O)O[C@H]1[C@@H](OP(=O)(O)O)[C@H](OP(=O)(O)O)[C@@H](OP(=O)(O)OP(=O)(O)O)[C@H](OP(=O)(O)O)[C@H]1OP(=O)(O)O` [5PP-IP5, 5-diphosphoinositol pentakisphosphate], in assay [1], the ΔH was -6.21 ± 0.48 kcal/mol, the ΔS worked out at 0.046 ± 0.008 kJ/mol/deg and the Kd is 123 nM.
